The subject of series [1] is MDA-MB-231 cells. The series is described as follows: In vitro cytostatic activity, Alamar-blue assay. The series is classed as cell-based, human. To be noted: 3 h treatment, then 3 days in serum-containing medium, four parallels, two independent experiments, read-out: IC50 ± SD, cytostatic activity. As for the experimental part: The in vitro measurements were carried out on 96-well plates containing 5 × 10^3 MDA-MB-231 cells per well. The cells were incubated for 24 h at 37 °C. The measurement started with treating these cells with the solutions of compounds for 3 h, where the final volume was 200 μL. The cytostatic activity was measured on a broad spectrum of concentrations between 0.000128 and 100 μM. Serum-free medium was used on cells for 3 h at 37 °C as control. After treatment, the compounds were washed out using a serum-free medium twice. The cells were then cultured for 72 h in a medium with serum. Alamar-blue (Resazurim) assay was used to determine the ratio of live cells and thus the IC50. Briefly, Alamar-blue solution (22.5 μL, 0.15 mg/mL in PBS (pH = 7)) was added to the cells. Synergy H4 multimode microplate reader (BioTek, Winooski, VT, USA) was used to determine the fluorescence (at λ = 530/30 nm and 610/10 nm) after 4 h incubation. Cytostasis was calculated as Cytostatic effect (%) = [1 − (ODtreated/ODcontrol)] × 100; where ODtreated and ODcontrol correspond to the optical densities of the treated and untreated cells, respectively. […] The curves were defined using MicrocalTM Origin (version 8.0, OriginLab, Northampton, MA, USA) software: cytostasis was plotted as a function of concentration, fitted to a sigmoidal curve, and the IC50 value was determined. […]

The subject of series [2] is MDA-MB-231 cells. The experiment in a line: Intracellular localization by confocal laser scanning microscopy. The series is classed as cell-based, human. To be noted: MDA-MB-231, 5 μM, 15, 45 and 90 min; CLSM.
Series [3] has as its system MDA-MB-231 cells. Particulars: ref [31], read-out: IC50, cytostatic activity; cited from earlier work. An excerpt: Table 2 The cytostatic activity of peptide-drug conjugates on MDA-MB-231. | column: IC50 ± SD (µM) * / MDA-MB-231

Like-named read-outs stand apart in the source and are kept apart here. Numbered stars: 1 amine (or outer) side, 2 acyl side, 3 side chain; on linkers, the order of the positions; unused ones are H or OH. Side chains are listed from the residue outwards. Peptide text beside a SMILES is read from it. * marks the point of attachment. Daunorubicin = COc1cccc2c1C(=O)c1c(O)c3c(c(O)c1C2=O)C[C@@](O)(C(C)=O)C[C@@H]3O[C@H]1C[C@H](N*)[C@H](O)[C@H](C)O1; 1Pyrenoyl = O=C(c1ccc2ccc3cccc4ccc1c2c34)*; Suc = O=C(CCC(=O)[*:2])[*:1]

Regarding `COc1cccc2c1C(=O)c1c(O)c3c(c(O)c1C2=O)C[C@@](O)(C(C)=O)C[C@@H]3O[C@H]1C[C@H](NC(=O)CCC(=O)N[C@@H](CCCNC(=N)N)C(=O)N[C@@H](CCCNC(=N)N)C(=O)N[C@@H](CCCNC(=N)N)C(=O)N[C@@H](CCCNC(=N)N)C(=O)N[C@@H](CCCNC(=N)N)C(=O)N[C@@H](CCCNC(=N)N)C(=O)N[C@@H](CCCNC(=N)N)C(=O)N[C@@H](CCCNC(=N)N)C(=O)N[C@@H](CCCCNC(=O)c2ccc3ccc4cccc5ccc2c3c45)C(N)=O)[C@H](O)[C@H](C)O1` [DauSuc-Arg8-Lys(PCA)], in the series on MDA-MB-231 cells [1], the IC50 (usually the midpoint of a concentration-inhibition curve) stood at 23.7 ± 4.3 µM.

For `COc1cccc2c1C(=O)c1c(O)c3c(c(O)c1C2=O)C[C@@](O)(C(C)=O)C[C@@H]3O[C@H]1C[C@H](NC(=O)CCC(=O)NCCCC[C@H](NC(=O)[C@H](CCCNC(=N)N)NC(=O)[C@H](CCCNC(=N)N)NC(=O)[C@H](CCCNC(=N)N)NC(=O)[C@H](CCCNC(=N)N)NC(=O)[C@H](CCCNC(=N)N)NC(=O)[C@H](CCCNC(=N)N)NC(=O)[C@H](CCCNC(=N)N)NC(=O)[C@H](CCCNC(=N)N)NC(=O)c2ccc3ccc4cccc5ccc2c3c45)C(N)=O)[C@H](O)[C@H](C)O1` [PCA-Arg8-Lys(DauSuc)], the IC50 with MDA-MB-231 cells [1] was 28.1 ± 7.5 µM.

Take `COc1cccc2c1C(=O)c1c(O)c3c(c(O)c1C2=O)C[C@@](O)(C(C)=O)C[C@@H]3O[C@H]1C[C@H](NC(=O)CCC(=O)NCCCC[C@H](NC(=O)[C@H](CCCNC(=N)N)NC(=O)[C@H](CCCNC(=N)N)NC(=O)[C@H](CCCNC(=N)N)NC(=O)[C@H](CCCNC(=N)N)NC(=O)[C@H](Cc2c[nH]c3ccccc23)NC(=O)c2ccc3ccc4cccc5ccc2c3c45)C(N)=O)[C@H](O)[C@H](C)O1` [PCA-Trp-Arg4-Lys(DauSuc)] (1Pyrenoyl-WRRRRK([Suc-Daunorubicin])-NH2): the “Internalization of DauSuc conjugates (Dau fluorescence)” value in the series on MDA-MB-231 cells [2] is on record as “very efficient internalization”.

succinylated daunomycin [DauSuc]: the IC50 in the series with MDA-MB-231 cells [3] is more than 100 µM.

These data come from paper PMC11900394, “1-Pyrene Carboxylic Acid: An Internalization Enhancer for Short Oligoarginines” (International Journal of Molecular Sciences, 2025).
